Structures are written as SMILES.

Consider 2 compounds from US20210393558A1, “METHODS AND COMPOSITIONS FOR PREVENTION AND TREATMENT OF PRESSURE ULCERS” (TECHNION RESEARCH AND DEVELOPMENT FOUNDATION LTD., priority 2017, published 2021).

In data set [1] the test system is C2C12 myoblasts. The data set is described as follows: Membrane permeability (FITC-labeled 4 kDa dextran uptake, FACS) under damage-level 12% strain. It counts as cell-based, murine. As to the method:
(§1) For each experiment, 300,000 cells were cultured 24 hours in parallel on 2-4 bioflexcell collagen-coated 6-well plates (Flexcell Inc., North Carolina). On the day of the experiment the cell growth media (with 0/1 mM NaPy) was replaced with media supplemented with different NaPy concentrations (0, 1 or 5 mM) and cells were incubated for 4 hours; this constitutes the pre-treatment of the cells. A four-hour pre-treatment was chosen as that is a clinically relevant time-scale during preparation e.g. before planned surgical procedures.
(§2) Each 6-well plate contained two wells with each of the three NaPy pre-treatment concentrations. After 4 hours, all but one of the bioflexcell plates were simultaneously subjected to damaging-level, sustained strain-loads of 12% radial stretching for 3 hours and one plate in each experiment was not stretched for control. […] Next, cells were centrifuged (900 rpm for 5 min) and resuspended in 0.5 ml of PBS within 12×75 mm polystyrene test tubes for use with fluorescence activated cell sorting (FACS).
(§3) Permeability of the plasma membrane was quantified by cell uptake of the small (4 kDa) FITC-labeled Dextran. Fluorescence intensity changes due to internalized FITC-labeled Dextran and auto fluorescence of over 20,000 cells per sample was measured using a fluorescence-activated cell sorting (FACS) Calibur system (BD Biosciences, New Jersey) with the fluorescence channel. […] For each pre-treatment (and growth media) condition 4 measurements were collected: strain-loaded cells with or without added dextran, and unstrained control cells with or without dextran; samples without dextran provide a control for native cell auto-fluorescence (AF). The percent change in dextran uptake is calculated by the mean value of the strained sample relative to the unstrained samples, after subtracting the auto-fluorescence for each. […]

The test system of data set [2] is NIH3T3 fibroblasts. The data set is described as above. It counts as cell-based, murine. The conditions noted are these: increasing concentrations of NaPy pre-treatment (0, 1, 5 mM, 4 hours), 12% strain 3 hrs. The procedure: as §1, §2, §3
The subject of data set [3] is C2C12 myoblasts. The data set is described as follows: Gap closure of damaged monolayers with low/medium-level stretching. The class given is cell-based, Mouse. The procedure:
(§4) Mouse myoblast or fibroblast cells (1×10^6 per well, previously grown media containing 1 mM NaPy) were seeded 1-3 days prior to performing a stretching experiment in a six-well (31-mm diameter) culture plate with an elastic, 0.51-mm thick, transparent and collagen-coated substrata bottom (Flexcell Inc., Burlington, N.C.). Cells were grown on the stretchable-bottom plate until a confluent monolayer had formed. The plates with cells were then mounted onto our stretching apparatus and radial stretching to tensile strains of 3% or 6% or 0% (no-stretch) control was applied Immediately following stretching, compressive deformation damage was induced in each monolayer using a rigid optic fiber (˜350 μm diameter). Cells at the center of each well were crushed, inducing an approximately circular cell-damage area with varying sizes (0.05-0.5 mm^2). Media was replaced to remove any cell debris and the fresh media contained varying concentrations of sodium pyruvate: 0, 1 or 5 mM. Then the time-dependent gap closure was evaluated to reveal kinematic features The stretching apparatus was mounted in the motorized microscope stage to facilitate for time-lapse imaging of progression of the gap closure. Cell viability throughout the prolonged experiments was ensured by maintaining 37° C., 5% CO2 and high humidity, using an incubator that enclosed the microscope (Life Imaging Services, Basel, Switzerland).
(§5) Time-lapse imaging was performed using a fully motorized, inverted fluorescence microscope (Olympus IX81, Tokyo, Japan) with a custom MATLAB 2012b (The MathWorks, Natick, Mass.) graphical user interface (GUI) module to automatically control lens positioning and collect images of the gap every 10 minutes for up to 24 hours. Images were taken using an XR Mega-10AWCL camera (Stanford Photonics Inc., Palo Alto, Calif.), using a 10×/NA 0.3 long working-distance, air immersion objective lens at a final magnification of 646.8 nm/pixel. A custom algorithm in MATLAB 2012b was used to automatically analyze the time-progression images of the gap area closure and quantify cell migration and gap closure progression, as described in Topman et al. (Micron 51:9-12; 2012); Toume et al. Int Wound J 14:698-703; 2017). Briefly, the time-dependent area was fit to a Richard's function, which is an asymmetric sigmoid, by minimizing the mean squared error. Using the fitted curve, the maximum migration rate was calculated, which is the maximal slope of the area vs. time, Richards fit. The normalized maximum migration rate was obtained by dividing the maximum migration rate by the initial gap area. In addition, the time for 90% gap area closure, which is indicative of the end of the en masse cell migration regime was obtained (Topman et al. 2012; Med Eng Phys 34:225-232).
(§6) Results of the different conditions were compared using a two-way analysis of variance (ANOVA) for unequal length samples; Statistical analysis was performed in MATLAB. The interaction parameter was found significant, thus the interactions between the sodium pyruvate concentration and the stretching level and were important; in cases where only the interaction parameter the interaction is considered ‘simple’ by typical definitions in statistical analysis. A one-way ANOVA was also performed in conjunction with post-hoc Tukey-Kramer tests to identify statistically significant differences levels of sodium pyruvate for each level of stretching and vice versa. A P-value lower than 0.05 was considered significant.
(§7) Both tested cell types, C2C12 myoblasts and NIH3T3 fibroblasts were cultured in media with 1 mM sodium pyruvate up to the time of infliction of compressive deformation damage (micro-gap formation) and concurrent application of radial stretching. […]

Data set [4] has as its system NIH3T3 fibroblasts. The data set is described as above. It counts as cell-based, Mouse. To be noted: 0% stretching, post-injury NaPy 0, 1 or 5 mM. The procedure:
as §4, §5, §6, §7

The conditions of data set [5]: cited from earlier work.
For data set [6] the following is noted: group given NaPy eye drops, 2 hours prior to extraction; control 0.145+/−0.06 mM; cited from earlier work.
The conditions of data set [7]: 3%-cream applied on the skin, after 24 hours; cited from earlier work.
Where [8] appears, read: 1 mM NaPy with 3% stretching vs no NaPy.
The mark [9] stands for this setting: 5 mM NaPy with 3% stretching vs no NaPy.
Setting [10] is: adopted from the literature, model input.

With `CC(=O)C(=O)[O-].[Na+]` [NaPy, sodium pyruvate], in the data set with C2C12 myoblasts [1] (NaPy pre-treatment 0, 1, 5 mM for 4 hours, then 12% sustained stretch 3 hrs), the “cell damage-induced uptake of dextran relative to control” value is on record as “a reduction was observed in the cell damage-induced uptake of dextran relative to control that is proportional to the NaPy concentration”. Moreover, the “strain-damage induced membrane poration” value in the data set with C2C12 myoblasts [1] (cultured in media containing 1 mM NaPy, pre-treated with 5 mM NaPy, 12% strain 3 hrs) is listed as “a reduction was observed in the strain-damage induced membrane poration to insignificant levels”. The “damage to membrane integrity (uptake relative to control)” value in the data set on NIH3T3 fibroblasts [2] is given as “reduced damage to membrane integrity”. Moreover, the gap closure rate entry is “unaffected” in the data set on C2C12 myoblasts [3] (0% stretching, post-injury NaPy 0, 1 or 5 mM) and “unaffected” with NIH3T3 fibroblasts [4]. Further, the normalized gap-closure rate was found to be 20.5 % area/hr with C2C12 myoblasts [3] (1 mM NaPy post-injury with 3% stretching (16.3 without NaPy)) and 23.7 % area/hr in the data set with C2C12 myoblasts [3] (5 mM NaPy post-injury with 3% stretching (16.3 without NaPy)). Further, the entries for the “time to reach 90% gap coverage” value in the data set on C2C12 myoblasts [3] (1 mM NaPy with 3% stretching (9.2 hrs without NaPy)) and in the data set on C2C12 myoblasts [3] (5 mM NaPy with 3% stretching (9.2 hrs without NaPy)) were 7.3 h and 6.3 h, respectively. Besides, the “decrease of time to reach 90% gap coverage” value with C2C12 myoblasts [3] (setting [8]) turned out to be 21%; in the data set on C2C12 myoblasts [3] (setting [9]), 31%. Besides, the “increase of normalized gap-closure rate” value in the data set with C2C12 myoblasts [3] (setting [8]) is on record as 26%; with C2C12 myoblasts [3] (setting [9]), 46%. In addition, in the data set on C2C12 myoblasts [3] (3% strain combined with post-injury exogenous NaPy supplement (1 or 5 mM)), the gap closure entry is “successfully accelerated gap closure in a concentration dependent and statistically significant manner”. In addition, in data set [5] (setting [10]), the “Solubility in the aqueous phase of the dressing and tissues” value was 100 mg/mL. For the same compound, the “diffusivity in the aqueous phase of the dressing and tissues” value in data set [5] (setting [10]) was 0.0005 mm^2/s. Moreover, in data set [5] (setting [10]), the “free diffusivity in the aqueous phase of the dressing and tissues” value is 0.001 mm^2/s. Besides, the “log Ko/W” value in data set [5] (input of the Kp equation) is −5.05. For the same compound, the “level of NaPy in corneal tissue” value in data set [6] was 350 to 525 µM.
Consider `O=C(O)Cc1ccccc1Nc1c(Cl)cccc1Cl` [Diclofenac Sodium], for which the transdermal flux in data set [7] was 0.321-0.943 nmol/cm^2·h.
